Key:
[1] = Maximum tolerated dose (MTD) / acute toxicity by single intravenous injection; conditions: female, BALB/C, mouse, in vivo, iv
Panc-1 cells = experiment: Tumor treatment in nude mice, Panc-1 model (Example 60); type: in vivo; conditions: for Size of tumor (mm^3) Day 10 / inhibitory rate on tumor Day 10 / Size of tumor (mm^3) Day 24 / inhibitory rate on tumor Day 24: Panc-1 in nude mice, IV once weekly for four weeks, E1-E4 15 mg/kg, mitomycin 2 mg/kg
Experimental: (§1) 1) Panc-1 cells were purchased from American type culture collection (ATCC) and identified according the specification provided by ATCC. Cells were cultivated in DMEM culture solution containing 10% fetal bovine serum at 37° C. and 5% CO2. The cells were passaged for every three days and cells within the 15th passage were used.
2) Production of tumor. 5×10^6Panc-1 cells were subcutaneously injected to the back of the nude mice. Mice were randomly grouped after the tumor reached at least 100 mm^3. Then treatment began and the day on which the treatment began was day 1.
[…]. The control group was administered by physiological saline. Drugs were administered once weekly for four weeks.

[2] = test system: scar and choroidal neovascularization (CNV); experiment: Inhibition of scar and choroidal neovascularization (CNV) by eye drops after laser photocoagulation; type: in vivo, C57 mice; conditions: for Maximal scar radius observed by pathological staining (pixel): 150 mW laser photocoagulation, eye drops daily, two weeks, C57 mice
Experimental: Animal: C57 mice of 16 weeks old, all female and 8 animals in each group.
Production and treatment of scar. […] Two weeks later, eye tissues were taken from 4 animals of each group for immunohistochemical (HE) staining. For another 4 animals, they were subjected to fixed irradiation through photocoagulation by 50 mW laser and then to treatment. 48 hours later, their eye tissues were taken, homogenated, filtered to isolate individual cells in the scar and choroidal neovascularization (CNV) tissues. The cells were washed by buffer twice and stained by biotin-conjugated anti-F4/80 (biotin-labeled precursor cell antigen from macrophage) and FITC-conjugated anti-CD45 (isothiocyanate fluorescein labeled leucocyte common antigen) at ambient temperature for 1 hour. Then the cells were washed by PBS containing 1% fetal bovine serum twice and then analyzed for the ratio of the macrophage precursor antigen positive cells in the leucocyte common antigen (CD45) positive cells by flow cytometry.

HEK293 cells = type: cell-based; conditions: HEK293, 72 hours, MTT; IC50 of modified compound compared to its corresponding cytotoxic compound; approximate multiples
Experimental: Toxicity detection method: a standard universal test program was used to perform the in vitro cytotoxicity test. 2500 HEK293 cells were cultured in a 96-well plate, and allowed to grow overnight. Cytotoxic compounds and their corresponding conjugated compounds were added into each well in different concentrations, cultivated with the cells at 37° C. for 72 hours, and then treated with MTT reagents. OD changes were read. The approximate multiples of the toxicity change were obtained by comparing the IC50 of the modified compounds to their corresponding cytotoxic compounds.

[3] = test system: Human breast cancer MDA-MB231 cells; type: in vivo, nude mice; conditions: for Size of tumor (mm^3) Day 10 / Size of tumor (mm^3) Day 24: MDA-MB231, nude mice, IV 13.2 μmol/kg once weekly for four weeks; for Effect on tumor growth, in words: compared to control, camptothecin, capecitabine and daunorubicin groups
Experimental: as §1, with “Human breast cancer MDA-MB231” for “Panc-1”, “[…] (DMEM” for “DMEM”, “medium)” for “solution”
2) Production of tumor. 5×10^6 MDA-MB231 cells were subcutaneously injected to the back of the nude mice. Mice were randomly grouped after the tumor reached at least 100 mm^3. Then treatment began and the day on which the treatment began was day 1.
3) Course of treatment. […] The drugs were administered once weekly for four weeks.
When R1 is 2-(2-Methoxyethoxy)Acetyl, and R3 is Ala, activation study and efficacy study were carried out by using compounds having different cleavable linker. The study methods are identical to those in Examples 10, 11 and 12. The in vitro activation efficiency was tested by asparagine endopeptidase and the tumor inhibition rate was tested by using human breast cancer MDA-MB231 model. […]

Structure (SMILES) | MTD at 17 days [1] | Size of tumor (mm^3) Day 10 (Panc-1 cells) | inhibitory rate on tumor Day 10 (Panc-1 cells) | Size of tumor (mm^3) Day 24 (Panc-1 cells) | inhibitory rate on tumor Day 24 (Panc-1 cells) | Inhibition on tumor growth, in words (Panc-1 cells; Panc-1, compared with mitomycin group and control group) | Maximal scar radius observed by pathological staining (pixel) [2] | Treatment effect on scar radius and inhibition of macrophage, in words ([2]; eye drops, compared to the control group and the mitomycin group) | Cytoxicity reduced (Multiple) (HEK293 cells) | Size of tumor (mm^3) Day 10 [3] | Size of tumor (mm^3) Day 24 [3] | Effect on tumor growth, in words [3]
COCCOCCOCCOCCOCCOCC(=O)N[C@H](C)C(=O)N[C@H](C)C(=O)N[C@H](CC(N)=O)C(=O)Nc1ccc(COC(=O)N2[C@H]3[C@@H]2CN2C4=C(C(=O)C(N)=C(C)C4=O)[C@H](COC(N)=O)[C@]32OC)cc1 [Compound E2] | ~90 mg/kg | 60.17 ± 30.26 mm^3 | 36.4% | 42.39 ± 62.24 mm^3 | 83.01% | greatly improved | 348 ± 146 pixel | greatly improved treatment effect on scar radius and inhibition of macrophage | – | – | – | –
CCCCCOC(=O)Nc1nc(=O)n([C@@H]2O[C@H](C)[C@@H](OC(=O)OCc3ccc(NC(=O)[C@H](CC(N)=O)NC(=O)[C@H](C)NC(=O)[C@H](C)NC(=O)CCCCCCC(=O)NO)cc3)[C@H]2O)cc1F [Compound S3, 4-N—(N—(N—(N-(8-(N-hydroxylamino)-1,8-octandioic acid-1-monoacyl)-L-alanyl)-L-alanyl)-L-asparaginyl)-amino benzyl alcohol-capecitabine-carbonic acid diester] | – | – | – | – | – | – | – | – | 78 Multiple | 85.67 ± 36.42 mm^3 | 0 mm^3 | strong inhibitory effect on tumor growth
COc1cccc2c1C(=O)c1c(O)c3c(c(O)c1C2=O)C[C@@](O)(C(C)=O)C[C@@H]3O[C@H]1C[C@H](NC(=O)OCc2ccc(NC(=O)[C@H](CC(N)=O)NC(=O)[C@H](C)NC(=O)[C@H](C)NC(=O)CCCCCN3C(=O)C=CC3=O)cc2)[C@H](O)[C@H](C)O1 [Compound S5, 4-N—(N—(N—(N-(6-maleimidocaproyl)-L-alanyl)-L-alanyl)-L-asparaginyl)-amino benzyl alcohol-daunorubicin-carbamate] | – | – | – | – | – | – | – | – | 125 Multiple | 63.67 ± 46.64 mm^3 | 46.45 ± 19.43 mm^3 | strong inhibitory effect on tumor growth
CO[C@@]12[C@H](COC(N)=O)C3=C(C(=O)C(C)=C(N)C3=O)N1C[C@@H]1N[C@@H]12 [mitomycin, reference compound] | – | 118.85 ± 36.47 mm^3 | 7.5% | 249.54 ± 95.46 mm^3 | 27.9% | – | 953 ± 249 pixel | – | – | – | – | –

From patent US10682371B2, “Small molecule conjugates specifically activated in tumor microenvironment for targeting and use thereof” (priority 2014, dated 2020)
